Measured values: BigSolDB 2.1

Oc1ccc(/C=C/c2cc(O)cc(O)c2)cc1
solubility (mole fraction)
Settings	in dichloromethane	in ethanol	in methanol	in n-butanol	in n-propanol
283.15 K	1.23e-06	0.0212	0.0174	0.0103	0.0134
288.15 K	1.57e-06	0.0224	0.0182	0.0112	0.0145
293.15 K	2e-06	0.0236	0.019	0.0121	0.0156
298.15 K	2.53e-06	0.0248	0.0198	0.013	0.0168
303.15 K	3.13e-06	0.0261	0.0206	0.014	0.018
